In PubChem BioAssay AID2060612 (Molecular Pharmacology Branch, DTP, NCI, 2025):

Tested on: 565232-114-T-J1-PDC complex spheroid viability
Test: Anticancer human tumor 565232-114-T-J1-PDC patient-derived bladder carcinoma cell line growth inhibition [CLK]
Conditions: for IC50: curve of first compound; for viability, T/C: stronger effect = lower value
How it was run: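 Patient-derived tumor cells grown as complex spheroids with HUVEC endothelial cells and mesenchymal stem cells, treated with drug combinations. Concentrations descend in half-log steps from near clinical Cmax, or from 10 microM if Cmax unknown.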

[1] = second compound 0.0316 µM, first compound 0.000949 µM
[2] = second compound 0.0316 µM, first compound 0.003 µM
[3] = second compound 0.0316 µM, first compound 0.00949 µM
[4] = second compound 0.0316 µM, first compound 0.03 µM
[5] = second compound 0.0316 µM, first compound 0.0949 µM
[6] = second compound 0.0316 µM, first compound 0.3 µM
[7] = second compound 0.1 µM, first compound 0.000949 µM
[8] = second compound 0.1 µM, first compound 0.003 µM
[9] = second compound 0.1 µM, first compound 0.00949 µM
[10] = second compound 0.1 µM, first compound 0.03 µM
[11] = second compound 0.1 µM, first compound 0.0949 µM
[12] = second compound 0.1 µM, first compound 0.3 µM
[13] = second compound 0.316 µM, first compound 0.000949 µM
[14] = second compound 0.316 µM, first compound 0.003 µM
[15] = second compound 0.316 µM, first compound 0.00949 µM
[16] = second compound 0.316 µM, first compound 0.03 µM
[17] = second compound 0.316 µM, first compound 0.0949 µM
[18] = second compound 0.316 µM, first compound 0.3 µM
[19] = second compound 1 µM, first compound 0.000949 µM
[20] = second compound 1 µM, first compound 0.003 µM
[21] = second compound 1 µM, first compound 0.00949 µM
[22] = second compound 1 µM, first compound 0.03 µM
[23] = second compound 1 µM, first compound 0.0949 µM
[24] = second compound 1 µM, first compound 0.3 µM
[25] = second compound 3.16 µM, first compound 0.000949 µM
[26] = second compound 3.16 µM, first compound 0.003 µM
[27] = second compound 3.16 µM, first compound 0.00949 µM
[28] = second compound 3.16 µM, first compound 0.03 µM
[29] = second compound 3.16 µM, first compound 0.0949 µM
[30] = second compound 3.16 µM, first compound 0.3 µM
[31] = second compound 10 µM, first compound 0.000949 µM
[32] = second compound 10 µM, first compound 0.003 µM
[33] = second compound 10 µM, first compound 0.00949 µM
[34] = second compound 10 µM, first compound 0.03 µM
[35] = second compound 10 µM, first compound 0.0949 µM
[36] = second compound 10 µM, first compound 0.3 µM
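Also: spheroids exposed to compounds for 7 days before readout.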
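For viability, T/C in this document: 100% = DMSO vehicle wells with luminescence normalized to vehicle control.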

Structure (SMILES): CC(C)CC(NC(=O)C(Cc1ccccc1)NC(=O)c1cnccn1)B(O)O (centres undefined) + CN1CCN(c2cc(C(=O)Nc3cc4cc(-c5cnn(C)c5)ccc4cn3)ccn2)CC1
- IC50 (second compound 0.0316 µM): 5.73 nM
- IC50 (second compound 0.1 µM): 6.17 nM
- IC50 (second compound 0.316 µM): < 0.949 nM
- IC50 (second compound 1 µM): < 0.949 nM
- IC50 (second compound 3.16 µM): < 0.949 nM
- IC50 (second compound 10 µM): < 0.949 nM
- viability, T/C [1]: 120%
- viability, T/C [2]: 109%
- viability, T/C [3]: 4.38%
- viability, T/C [4]: 1.43%
- viability, T/C [5]: 1.54%
- viability, T/C [6]: 1.27%
- viability, T/C [7]: 129%
- viability, T/C [8]: 133%
- viability, T/C [9]: 2.13%
- viability, T/C [10]: 1.8%
- viability, T/C [11]: 1.71%
- viability, T/C [12]: 1.6%
- viability, T/C [13]: 23.8%
- viability, T/C [14]: 25.9%
- viability, T/C [15]: 3.56%
- viability, T/C [16]: 1.36%
- viability, T/C [17]: 1.26%
- viability, T/C [18]: 0.65%
- viability, T/C [19]: 0.22%
- viability, T/C [20]: 3%
- viability, T/C [21]: 1.91%
- viability, T/C [22]: 0.18%
- viability, T/C [23]: 2.19%
- viability, T/C [24]: 2.68%
- viability, T/C [25]: 0.16%
- viability, T/C [26]: 1.18%
- viability, T/C [27]: 0.21%
- viability, T/C [28]: 0.14%
- viability, T/C [29]: 0.16%
- viability, T/C [30]: 1.81%
- viability, T/C [31]: 0.1%
- viability, T/C [32]: 3.27%
- viability, T/C [33]: 3.03%
- viability, T/C [34]: 0.17%
- viability, T/C [35]: 1.45%
- viability, T/C [36]: 0.23%

Structure (SMILES): C=CC(=O)Nc1cc(Nc2nccc(-c3cn(C)c4ccccc34)n2)c(OC)cc1N(C)CCN(C)C + CN1CCN(c2cc(C(=O)Nc3cc4cc(-c5cnn(C)c5)ccc4cn3)ccn2)CC1
- IC50 (second compound 0.0316 µM): > 300 nM
- IC50 (second compound 0.1 µM): > 300 nM
- IC50 (second compound 0.316 µM): < 0.949 nM
- IC50 (second compound 1 µM): < 0.949 nM
- IC50 (second compound 3.16 µM): < 0.949 nM
- IC50 (second compound 10 µM): < 0.949 nM
- viability, T/C [1]: 104%
- viability, T/C [2]: 95.3%
- viability, T/C [3]: 106%
- viability, T/C [4]: 84.1%
- viability, T/C [5]: 90.6%
- viability, T/C [6]: 83.7%
- viability, T/C [7]: 97.5%
- viability, T/C [8]: 85.8%
- viability, T/C [9]: 110%
- viability, T/C [10]: 89.3%
- viability, T/C [11]: 97.9%
- viability, T/C [12]: 94.5%
- viability, T/C [13]: 14.9%
- viability, T/C [14]: 20.3%
- viability, T/C [15]: 20.1%
- viability, T/C [16]: 20.5%
- viability, T/C [17]: 18.7%
- viability, T/C [18]: 18.3%
- viability, T/C [19]: 0.2%
- viability, T/C [20]: 0.26%
- viability, T/C [21]: 1.8%
- viability, T/C [22]: 0.2%
- viability, T/C [23]: 0.2%
- viability, T/C [24]: 1.48%
- viability, T/C [25]: 0.23%
- viability, T/C [26]: 0.22%
- viability, T/C [27]: 1.48%
- viability, T/C [28]: 0.22%
- viability, T/C [29]: 0.91%
- viability, T/C [30]: 0.82%
- viability, T/C [31]: 0.23%
- viability, T/C [32]: 0.26%
- viability, T/C [33]: 1.25%
- viability, T/C [34]: 1.11%
- viability, T/C [35]: 1.9%
- viability, T/C [36]: 1.19%
